Target: IGF-1R (Homo sapiens (Human), UniProt P08069)
Assay: Example B-1: IGF-1R Assay (PC3 cells, IGF1 stimulation, AlphaLISA)
Assay type: cell-based
Details: 200 ng/mL IGF1 stimulation, read-out: Biological Activity against IGF-1R IC50
Procedure: 50K PC3 cells were seeded on day 1 in 50 μL of media in 96-well plate and incubated overnight at 37° C., 5% CO2. On day 2, all cells were expected to be at 80-90% confluency. Cells were starved for two hours by changing the media to 90 μL of EMEM serum-free media and incubated for 2 hours. Next, cells were treated with 10 μL of 10× concentrated and 3× serially diluted compounds for two hours. It makes 1× of compounds in 100 μL media. This was followed by stimulation of cells with 11×IGF1 for 30 min in 10 μL of serum-free EMEM media at the final concentration of 200 ng/mL.
The media was removed and replaced by 50 μL of 1× lysis buffer from the AlphaLISA kit (with 1× of cOmplete™ protease inhibitor). The plates were sealed, and cells were allowed to lyse for 10 min in the shaker before storing the plate at −20° C. until used. The AlphaLISA assay with processed cell lysates were performed as described in the protocol. Briefly, 10 μL of the undiluted sample were loaded to 384 well Optiplates and 5 μL of the acceptor mix (as described in the AlphaLISA kit) was added to each well. The plates were sealed and briefly vortexed followed by the incubation at RT for 3 hours. In the dark, 5 μL of donor mix was added to each well. All plates were sealed and stored at RT overnight. The plates were read in EnVision reader using standard AlphaLISA settings.
Compound activity was analyzed using CBIS data analysis suite (ChemInnovation, CA). Percentage inhibition was calculated using the following formula: % Inhibition=100%×(1−(mean RLU of test sample−mean RLU of vehicle control)/(mean RLU of EC80 control−mean RLU of vehicle control)). The activity for representative examples of the invention is shown in the following table, wherein A: IC50≤500 nM; B: 500 nM<IC50≤2 μM; C: 2 μM<IC50≤10 μM; D: IC50>10 μM.

Chain of IGF-1R (P08069 31-1367): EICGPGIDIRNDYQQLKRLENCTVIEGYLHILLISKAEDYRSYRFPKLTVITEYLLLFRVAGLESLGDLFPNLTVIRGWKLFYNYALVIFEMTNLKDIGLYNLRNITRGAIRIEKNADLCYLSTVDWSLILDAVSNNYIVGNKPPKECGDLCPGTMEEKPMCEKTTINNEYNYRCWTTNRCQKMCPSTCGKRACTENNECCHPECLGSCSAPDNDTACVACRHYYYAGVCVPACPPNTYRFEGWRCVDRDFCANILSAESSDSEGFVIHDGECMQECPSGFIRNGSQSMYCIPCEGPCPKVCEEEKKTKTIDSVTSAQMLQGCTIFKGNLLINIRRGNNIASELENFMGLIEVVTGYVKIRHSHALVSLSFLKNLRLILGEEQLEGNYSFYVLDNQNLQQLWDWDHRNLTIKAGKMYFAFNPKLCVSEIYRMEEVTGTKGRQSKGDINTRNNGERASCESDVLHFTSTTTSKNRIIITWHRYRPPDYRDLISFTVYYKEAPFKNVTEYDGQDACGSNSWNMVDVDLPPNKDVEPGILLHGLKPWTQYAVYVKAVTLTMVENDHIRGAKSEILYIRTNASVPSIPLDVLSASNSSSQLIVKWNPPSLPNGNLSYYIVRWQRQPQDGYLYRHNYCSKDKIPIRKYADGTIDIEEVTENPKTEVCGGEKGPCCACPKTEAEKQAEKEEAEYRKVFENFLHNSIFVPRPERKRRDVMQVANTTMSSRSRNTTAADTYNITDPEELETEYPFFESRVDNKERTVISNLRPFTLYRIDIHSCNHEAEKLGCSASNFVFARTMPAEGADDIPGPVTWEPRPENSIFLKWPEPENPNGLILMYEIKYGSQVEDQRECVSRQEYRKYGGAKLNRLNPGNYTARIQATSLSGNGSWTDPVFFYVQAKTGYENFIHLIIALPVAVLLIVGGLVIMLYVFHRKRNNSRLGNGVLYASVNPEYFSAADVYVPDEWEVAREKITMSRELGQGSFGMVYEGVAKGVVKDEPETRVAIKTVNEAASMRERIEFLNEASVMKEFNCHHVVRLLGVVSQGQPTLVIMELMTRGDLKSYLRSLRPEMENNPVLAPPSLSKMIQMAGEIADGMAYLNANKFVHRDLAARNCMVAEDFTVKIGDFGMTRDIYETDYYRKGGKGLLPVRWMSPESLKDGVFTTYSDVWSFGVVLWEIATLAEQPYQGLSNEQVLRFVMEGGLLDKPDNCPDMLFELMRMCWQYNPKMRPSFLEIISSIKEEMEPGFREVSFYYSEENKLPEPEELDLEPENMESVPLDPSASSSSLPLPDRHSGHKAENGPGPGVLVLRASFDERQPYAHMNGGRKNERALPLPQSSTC

COc1cc(Nc2nccc(Nc3cnc4ccc(Br)cc4c3)n2)ccc1O[C@H]1CC[C@@H](N(C)C)CC1 [Compound 33, 4-(6-bromo-3-quinolylamino)-2-{3-methoxy-4-[(1s,4s)-4-(dimethylamino)cyclohexyloxy]phenylamino}pyrimidine] and CN(C)[C@H]1CC[C@@H](Oc2ccc(Nc3nccc(Nc4cnc5ccccc5c4)n3)cc2)CC1 [Compound 40, 4-(3-quinolylamino)-2-{p-[(1s,4s)-4-(dimethylamino)cyclohexyloxy]phenylamino}pyrimidine] cannot be ordered by IC50: no more than 500 nM for the first, no more than 500 nM for the second.

CN(C)[C@H]1C[C@H](Oc2ccc(Nc3nccc(Nc4cnc5ccccc5c4)n3)cc2Br)C1 [Compound 34, 2-{3-bromo-4-[(1r,3r)-3-(dimethylamino)cyclobutoxy]phenylamino}-4-(3-quinolylamino)pyrimidine] and CN(C)[C@H]1C[C@H](Oc2ccc(Nc3nccc(Nc4cnc5ccccc5c4)n3)cc2Cl)C1 [Compound 35, 2-{3-chloro-4-[(1r,3r)-3-(dimethylamino)cyclobutoxy]phenylamino}-4-(3-quinolylamino)pyrimidine] cannot be ordered by IC50: no more than 500 nM for the first, no more than 500 nM for the second.

CN(C)[C@H]1C[C@H](Oc2ccc(Nc3nccc(Nc4cnc5ccccc5c4)n3)cc2C(F)(F)F)C1 [Compound 36, 4-(3-quinolylamino)-2-{4-[(1r,3r)-3-(dimethylamino)cyclobutoxy]-3-(trifluoromethyl)phenylamino} pyrimidine] and CN(C)[C@H]1C[C@H](Oc2ccc(Nc3nccc(Nc4cnc5ccccc5c4)n3)cc2C#N)C1 [Compound 42, 5-[4-(3-quinolylamino)-2-pyrimidinylamino]-2-[(1r,3r)-3-(dimethylamino)cyclobutoxy] benzonitrile] cannot be ordered by IC50: no more than 500 nM for the first, no more than 500 nM for the second.

COc1cc(Nc2nccc(Nc3cnc4ccccc4c3)n2)ccc1OC1CN(C)C1 [Compound 37, 2-[3-methoxy-4-(1-methyl-3-azetidinyloxy)phenylamino]-4-(3-quinolylamino)pyrimidine] and COCCN(C)[C@H]1C[C@@H](Oc2ccc(Nc3nccc(Nc4cnc5cc(F)c(F)cc5c4)n3)cc2OC)C1 [Compound 47, 4-(6,7-difluoro-3-quinolylamino)-2-(3-methoxy-4-{(1s,3s)-3-[(2-methoxyethyl)-N-methylamino]cyclobutoxy}phenylamino)pyrimidine] cannot be ordered by IC50: no more than 500 nM for the first, no more than 500 nM for the second.

O=S1(=O)CCN([C@H]2CC[C@@H](Oc3ccc(Nc4nccc(Nc5cnc6ccccc6c5)n4)cc3)CC2)CC1 [Compound 38, 4-[(1s,4s)-4-{p-[4-(3-quinolylamino)-2-pyrimidinylamino]phenoxy}cyclohexyl]-126,4-thiazinane-1,1-dione] and c1ccc2ncc(Nc3ccnc(Nc4ccc(O[C@H]5CC[C@@H](N6CCOCC6)CC5)cc4)n3)cc2c1 [Compound 39, 4-(3-quinolylamino)-2-{p-[(1s, 4s)-4-morpholinocyclohexyloxy]phenylamino}pyrimidine] cannot be ordered by IC50: no more than 500 nM for the first, no more than 500 nM for the second.

O=C1CN([C@H]2CC[C@@H](Oc3ccc(Nc4nccc(Nc5cnc6ccccc6c5)n4)cc3)CC2)CCN1 [Compound 41] and COC1CCc2cc(Nc3ccnc(Nc4ccc(OCCCN5CCOCC5)cc4)n3)cnc2C1 (stereo not shown) [Compound 66, 4-(7-methoxy-5,6,7,8-tetrahydro-3-quinolylamino)-2-[p-(3-morpholinopropoxy)phenylamino] pyrimidine] cannot be ordered by IC50: no more than 500 nM for the first, 500 to 2000 nM for the second.

CN(C)[C@H]1C[C@@H](Oc2ccc(Nc3nccc(Nc4cnc5c(c4)OCCO5)n3)cc2C#N)C1 [Compound 43, 5-[4-(2,3-dihydro-1,4-dioxa-5-aza-7-naphthylamino)-2-pyrimidinylamino]-2-[(1s,3s)-3-(dimethylamino)cyclobutoxy] benzonitrile] and CN(C)[C@H]1C[C@@H](Oc2ncc(Nc3nccc(Nc4cnc5c(c4)OCCO5)n3)cc2C#N)C1 [Compound 46, 5-[4-(2,3-dihydro-1,4-dioxa-5-aza-7-naphthylamino)-2-pyrimidinylamino]-2-[(1s,3s)-3-(dimethylamino)cyclobutoxy] nicotinonitrile] cannot be ordered by IC50: no more than 500 nM for the first, no more than 500 nM for the second.

COc1cc(Nc2nccc(Nc3cnc4c(c3)OCCO4)n2)cc(C#N)c1O[C@H]1C[C@H](N(C)C)C1 [Compound 44, 5-[4-(2,3-dihydro-1,4-dioxa-5-aza-7-naphthylamino)-2-pyrimidinylamino]-3-methoxy-2-[(1r,3r)-3-(dimethylamino)cyclobutoxy] benzonitrile] and COc1cc(Nc2nccc(Nc3cnc4cc(F)c(F)cc4c3)n2)cnc1N1CC(N(C)C)C1 [Compound 48, 4-(6,7-difluoro-3-quinolylamino)-2-{6-[3-(dimethylamino)-1-azetidinyl]-5-methoxy-3-pyridylamino}pyrimidine] cannot be ordered by IC50: no more than 500 nM for the first, no more than 500 nM for the second.

CN1CC2(Cc3ccc(Nc4nccc(Nc5cc6cccc(F)c6[nH]c5=O)n4)cc3O2)C1 [Compound 45, 8-fluoro-3-{2-(1-methyl-3′H-spiro[azetidine-3,2′-[1]benzofuran]-6′-ylamino)-4-pyrimidinylamino}-1,2-dihydro-2-quinolinone] and COc1cc(Nc2nccc(Nc3cnc4cc(F)c(F)cc4c3)n2)cnc1N1CC2(COC2)C1 [Compound 50, 4-(6,7-difluoro-3-quinolylamino)-2-{5-methoxy-6-(2-oxa-6-aza-6-spiro[3.3]heptyl)-3-pyridylamino}pyrimidine] cannot be ordered by IC50: no more than 500 nM for the first, no more than 500 nM for the second.

COc1cc(Nc2nccc(Nc3cnc4cc(F)c(F)cc4c3)n2)cnc1N1CCN(CC#N)CC1 [Compound 49] and COc1cc(Nc2nccc(Nc3cnc4cc(F)c(F)cc4c3)n2)cnc1N1CCN(C2COC2)CC1 [Compound 51, 4-(6,7-difluoro-3-quinolylamino)-2-{5-methoxy-6-[4-(3-oxetanyl)-1-piperazinyl]-3-pyridylamino}pyrimidine] cannot be ordered by IC50: no more than 500 nM for the first, no more than 500 nM for the second.

COc1cc(Nc2nccc(Nc3cnc4cc(F)c(F)cc4c3)n2)cnc1N1CCNC(C(C)(C)O)C1 (stereo not shown) [Compound 52, 2-(4-{5-[4-(6,7-difluoro-3-quinolylamino)-2-pyrimidinylamino]-3-methoxy-2-pyridyl}-2-piperazinyl)-2-propanol] and COc1cc(Nc2nccc(Nc3cnc4c(c3)SC(C)CC4)n2)ccc1OCCCN1CCCCC1 (stereo not shown) [Compound 61, 2-[3-methoxy-4-(3-piperidinopropoxy)phenylamino]-4-(2-methyl-3,4-dihydro-2H-1-thia-5-azanaphth-7-ylamino)pyrimidine] cannot be ordered by IC50: no more than 500 nM for the first, no more than 500 nM for the second.

COc1cc(Nc2nccc(Nc3cnc4c(c3)COCC4)n2)ccc1OCCCN1CCCCC1 [Compound 53, 4-(7,8-dihydro-5H-6-oxa-1-azanaphth-3-ylamino)-2-[3-methoxy-4-(3-piperidinopropoxy)phenylamino] pyrimidine] and COc1cc(Nc2nccc(Nc3cnc4c(c3)CCOC4)n2)ccc1OCCCN1CCCCC1 [Compound 54, 4-(6,8-dihydro-5H-7-oxa-1-azanaphth-3-ylamino)-2-[3-methoxy-4-(3-piperidinopropoxy)phenylamino] pyrimidine] cannot be ordered by IC50: no more than 500 nM for the first, no more than 500 nM for the second.

COc1cc(Nc2nccc(Nc3cnc4c(c3)C3CCC4C3)n2)ccc1OCCCN1CCCCC1 (stereo not shown) [Compound 56, 4-(3-azatricyclo[6.2.1.0^2,7]undeca-2,4,6-trien-5-ylamino)-2-[3-methoxy-4-(3-piperidinopropoxy)phenylamino] pyrimidine] and COc1cc(Nc2nccc(Nc3cnc4c(c3)C3CCC(C4)O3)n2)ccc1OCCCN1CCCCC1 (stereo not shown) [Compound 60, 2-[3-methoxy-4-(3-piperidinopropoxy)phenylamino]-4-{12-oxa-6-azatricyclo[7.2.1.0^2,7]dodeca-2(7),3,5-trien-4-ylamino}pyrimidine] cannot be ordered by IC50: no more than 500 nM for the first, 500 to 2000 nM for the second.

COc1cc(Nc2nccc(Nc3cnc4c(c3)CCCCC4)n2)ccc1OCCCN1CCCCC1 [Compound 57, 4-{8-azabicyclo[5.4.0]undeca-1(11),7,9-trien-10-ylamino}-2-[3-methoxy-4-(3-piperidinopropoxy)phenylamino] pyrimidine] and COc1cc(Nc2nccc(Nc3cnc4c(c3)CC(C)CC4)n2)ccc1OCCCN1CCCCC1 (stereo not shown) [Compound 62, 2-[3-methoxy-4-(3-piperidinopropoxy)phenylamino]-4-(6-methyl-5,6,7,8-tetrahydro-3-quinolylamino)pyrimidine] cannot be ordered by IC50: no more than 500 nM for the first, no more than 500 nM for the second.

CC1(C)CCc2ncc(Nc3ccnc(Nc4ccc(OCCCN5CCOCC5)cc4)n3)cc2C1 [Compound 63, 4-(6,6-dimethyl-5,6,7,8-tetrahydro-3-quinolylamino)-2-[p-(3-morpholinopropoxy)phenylamino] pyrimidine] and CC1(C)CCc2cc(Nc3ccnc(Nc4ccc(OCCCN5CCOCC5)cc4)n3)cnc2C1 [Compound 64, 4-(7,7-dimethyl-5,6,7,8-tetrahydro-3-quinolylamino)-2-[p-(3-morpholinopropoxy)phenylamino] pyrimidine] cannot be ordered by IC50: no more than 500 nM for the first, no more than 500 nM for the second.

Compound CC1(C)COc2cc(Nc3ccnc(Nc4ccc(OCCCN5CCOCC5)cc4)n3)cnc2O1 [Compound 65, 4-(3,3-dimethyl-2,3-dihydro-1,4-dioxa-5-aza-7-naphthylamino)-2-[p-(3-morpholinopropoxy)phenylamino]pyrimidine] has an IC50 of no more than 500 nM.

Reference: US20250171431A1, “HETEROCYCLIC INHIBITORS OF IGF-1R FOR TREATMENT OF DISEASE” (HORIZON THERAPEUTICS IRELAND DAC, priority 2023, published 2025)
